# Measured values taken from patent US12729368B2, “Methods and compositions for generating oligodendrocyte progenitor cells” (Trailhead Biosystems Inc., priority 2022, dated 2026).
# Values joined by “and” are separate entries in the source; they are usually repeats but may differ in a detail not shown here. Equal values may be shown once.
# What was measured:
# Assay type in all cases: cell-based, human
# OPCs [1] = test: HD-DoE 8-factor model for stage 4 on OPCs; settings: optimized for maximal expression of CNP at 1339
# Protocol: (§1) To engineer the recipe of stage 4 of differentiation, 48 or 96 different combinations of effectors generated using Design-of-Experiments compression through D-optimality were robotically prepared. The effector combinations were prepared in a basal media and were subsequently added to the cells, which were treated with the stage 1, stage 2 and stage 3 differentiation media as described in the earlier examples to generate OPCs. […] Solutions within the tested space could then be explored to address desirability.
# OPCs [2] = test: HD-DoE 12-factor model for stage 4 on OPCs, 6 days in culture
# Protocol: as §1, with “desirability. […] Benarroch (2009) Neurology 72:1779-1785; Shi et al. (2019) Exp Ther Med, 18:1258-1266).” for “desirability.”
# [3] = tested on: cells cultured in stage 1 and stage 2 differentiation media; test: HD-DoE 8-factor model for stage 3 (version 2)
# Protocol: To further differentiate the cells to an oligodendrocyte progenitor identity, additional HD-DoE experiments were performed on the cells that were cultured in stage 1 and stage 2 differentiation media. After 3 days, gene expression of cells in different combinatorial conditions were investigated. At this time, we focused on maximal expression of signature oligodendrocyte progenitor genes such as SOX10, OLIG1 and PDGFRa (Goldman and Kuypers (2015) Development 142:3983-95: Marques et al. (2016) Science 352:1326-1329). In one 8-factor model, individual and combinatorial effects of TTNPB (an RA agonist), CHIR99021, FGF-2, IGF-1, AGN193109, Purmorphamine, MHY1485 (a mTOR pathway agonist) and SC79 (an AKT pathway agonist) were tested to guide the cells toward a SOX10/PDGFRa positive population. […] CHIR99021 was also positive, with a factor contribution of 8.1 (FIG. 33).
# Other positive factors were IGF-1, with a factor contribution of 11.2, CHIR99021, with a factor contribution of 8.5 and TTNPB, with a factor contribution below 1 (FIG. 34).
# To confirm the impact of TTNPB, FGF-2 and IGF-1 on a bigger scale, we investigated the expression profile of a larger group of genes defining late oligodendrocyte progenitor population, such as ID2, CSPG4, FYN, SOX8, PLP1 and BCAN (Perlman et al. (2020). Glia 68:1291-1303; Goldman and Kuypers (2015) Development 142:3983-95; van Tilborg et al. (2018) Glia 66:221-238) and neuronal genes such as NEUROD1, NEUROG1 and NEUROG2 in presence of IGF-1, FGF-2 or TTNPB.
# [4] = tested on: cells cultured in stage 1 and stage 2 differentiation media; test: Two further HD-DoE models optimized for SOX10 (IGF-1, FGF-2, AGN193109)
# Text: According to literature, proteins such as FGF-2, IGF-1, PDGF-AA and NT-3 play an important role in oligodendrocyte differentiation (Goldman and Kuypers (2015) Development 142:3983-95). In the first model, FGF-2 had positive regulatory impact only on the expression level of SOX10 and IGF-1 on PDGFRa. Therefore, to further understand the impact of IGF-1 and FGF-2 on differentiation of cells and confirm their positive role, we included these factors in two other models and optimized the models for maximum expression of SOX10. This gene is one of the main transcription factors of oligodendrocytes, along with OLIG2 and NKX2-2 that has shown the potential to commit the stem cells to oligodendrocytes in reprogramming efforts (Wang et al, (2014) Proc Natl Arad Sri USA 111:E2885-94; García-León et al. (2018) Stem Cell Reports 10:655-672).
# pre-OPCs [5] = test: HD-DoE second 12-factor model for stage 2 (Purmorphamine with TTNPB, Biotin, Insulin etc.); settings: optimized for OLIG2; input for minimal expression (negative)
# Protocol: To gain more information about the effect of Purmorphamine on differentiation of pre-OPCs to a more committed cell population, we tested this factor in two other models. In a 12-factor model, we included Purmorphamine, FGF2, AGN193109 and CHIR99021 along with 8 new inputs including TTNPB, Biotin, Insulin, propionate, DBZ, Yhhu3792, LDN193189 and Y-27632. […] In another 12-factor model, Purmorphamine was tested along with A 8301, CHIR99021, Dexamethasone, T3+T4, PD0325901, ZM336372, DBZ, BMP7, PD173074, SANT-1 and PDGF-AA.
# pre-OPCs [6] = test: HD-DoE 12-factor model for stage 2 (version 1), 3 days on stage 1 pre-OPCs; settings: optimized for maximum expression of OLIG2 at 1841.6; negative impact
# Text: To engineer the recipe of stage 2 of differentiation, cells were first cultured in the stage 1 media described in Example 1 and then treated with combinations of 8 or 12 factors for 3 days and the gene expression of cells in each condition was modeled. At this point, due to short duration of culture (only six days in vitro), we decided to focus on maximal expression of OLIG2 and maintenance of high expression of NKX2-2, while initiating expression of SOX10, OLIG1 and PDGFRa, to guide the cells towards oligodendrocyte fate (Emery and Lu (2015). Cold Spring Harb Perspect Biol. 7:a020461; Perlman et al. (2020). Glia 68:1291-1303; Goldman and. Kuypers (2015) Development 142:3983-95).
# In one 12-factor model, the individual and combinatorial impact of SUN 11602 an agonist for FGF signaling pathway, FGF2, Activin A an activator of one of the receptors of TGF-b superfamily, A 8301, an inhibitor of TGF-b pathway, CHIR99021 a WNT activator, AGN193109 a RA antagonist, MK2206 an AKT inhibitor, Purmorphamine an agonist of SHH signaling pathway, AZD3147 an antagonist of mTOR pathway, MHY1485 an agonist of mTOR pathway, SC79 an agonist of AKT pathway and G06983 an inhibitor of PKC pathway, were tested.
# Dynamic profile analysis was used to assess the expression levels of other genes of interests, such as NKX2-2, OLIG1 and SOX10, while the model is maximized for OLIG2. Activin A and SUN 11602 were brought down to zero due to their very low factor contribution. We observed when the model is optimized, the expression level of NKX2-2 is at 3000, PDGFRa at 1000, OLIG1 at 80 and SOX10 at 15 (FIG. 12).
# pre-OPCs [7] = test: HD-DoE 8-factor model for stage 2 (version 2) on pre-OPCs; settings: negative impact
# Protocol: To engineer the recipe of stage 2 of differentiation, cells were first cultured in the stage 1 media described in Example 1, then, 48 or 96 different combinations of effectors generated using Design-of-Experiments compression through D-optimality were robotically prepared. The effector combinations were prepared in a basal media and were subsequently added to the cells, which were then allowed to differentiate. Three days later RNA extraction was performed, and gene expression was obtained using quantitative PCR analysis. The data was normalized and modeled using partial least squares regression analysis to the effector design, resulting in the generation of gene-specific models, which after model tuning for maximal predictive power, provided explanation of the effectors ability to control the expression of individual genes, combinatorically, and individually. Solutions within the tested space could then be explored to address desirability.
# At this point, due to short duration of culture (only six days in vitro) we decided to focus on maximal expression of OLIG2 and maintenance of high expression of NKX2-2, while initiating expression of SOX10, OLIG1 and PDGFRa, to guide the cells towards oligodendrocyte fate (Emery and Lu (2015). Cold Spring Harb Perspect Biol. 7:a020461; Perlman et al. (2020). Glia 68:1291-1303; Goldman and Kuypers (2015) Development 142:3983-95). In one 8-factor model, the individual and combinatorial impact of CHIR99021 (a WNT pathway agonist), AGN193109 (an RA pathway antagonist), FGF-2 (an FGFR agonist), Purmorphamine (an SHH pathway agonist), AICAR (an AMPK agonist), GW3965 (an LXR pathway agonist), GW590735 (a PPAR-a agonist) and AZD3147 (a mTOR antagonist) on further differentiation of cells were tested.
# [8] = optimized for CNP at 1790, negative impact
# [9] = optimized for CNP at 1790, positive
compound,measurement,setting,value
N[C@@H](Cc1cc(I)c(Oc2ccc(O)c(I)c2)c(I)c1)C(=O)O [T3],factor contribution,OPCs [1]; positive,18
same,effect on other OL genes and neuronal gene NeuroG1,OPCs [2]; factor effect plots,"can upregulate other OL genes such as PLP1, PTGDS, KLK6 and MBP while downregulating neuronal gene NeuroG1"
same,factor contribution,OPCs [2]; [8],1.2
Insulin: insulin receptor agonist,factor contribution,OPCs [1]; positive,10
same,factor contribution,OPCs [2]; [9],3
same,factor contribution,"OPCs [2]; optimized for PLP1 at 3600, positive",13 and 13.2
IGF-1: IGFR activator (insulin-like growth factor 1),effect on late OPC genes and neuronal genes,[3]; factor plots vs concentration,"expression levels of OPC genes increased as the concentration of IGF-1 increased, while neuronal genes decreased"
same,factor contribution,"[3]; optimized for maximum expression of PDGFRa at 853.4, positive",11.2
same,impact on the expression level of SOX10,[4]; two other models optimized for SOX10,positive impact
same,factor contribution,OPCs [1]; positive,below 1
same,factor contribution,OPCs [2]; [9],5
O=C(O)CCCC[C@@H]1SC[C@@H]2NC(=O)N[C@@H]21 [Biotin],factor contribution,OPCs [1]; negative impact,12
same,factor contribution,OPCs [2]; [8],16 and 16.5
Cc1ccc(C2=CCC(C)(C)c3ccc(C#Cc4ccc(C(=O)O)cc4)cc32)cc1 [AGN193109],factor contribution,pre-OPCs [5],18.3
same,factor contribution,"[4]; increasing level of SOX10, positive effect",16
same,factor contribution,pre-OPCs [6],23.2
same,factor contribution,pre-OPCs [7]; optimized for maximum expression of OLIG1 at 454.7,25.3
same,factor contribution,pre-OPCs [7]; optimized for maximum expression of OLIG2 at 3325,25.8
